Results reported in patent US4994582A, “Novel antibiotic NK130119” (Nippon Kayaku Kabushiki Kaisha, priority 1989, dated 1991).
In brackets after ≈: the same amount, converted by molar mass.

Assays:
[1] = test system: human melanoma cells (G361); test: growth-inhibitory effect on human melanoma cells, dye exclusion method; format: cell-based; details: G-361, 72 hours
Method: The growth-inhibitory effects of the compound of the present invention on mouse melanoma cells (B16) and human melanoma cells (G361) were examined. A 96-well plate was inoculated with mouse melanoma cells at a ratio of 1.5×10^3 cells per well, while another 96-well plate was inoculated with human melanoma cells at a ratio of 1.0×10^3 per well. These cells were incubated in an incubator at 37° C. under 5% CO2. Then the compound of the present invention was added thereto at various concentrations. Cells in each well were counted by the dye exclusion method 72 hours after the addition to thereby evaluate the growth-inhibitory effect of the test compound on the mouse melanoma cells and that on the human melanoma cells at various concentrations.

[2] = test system: human pulmonary cancer cells (PC-3); test: growth-inhibitory effect on human pulmonary cancer cells, dye exclusion method; format: cell-based; details: 72 h, three days
Method: the growth-inhibitory effects of the compound of the present invention on mouse pulmonary cancer cells (LL) and human plumonary cancer cells (PC-3) were examined.
A 96-well plate was inoculated with mouse polmonary cancer cells at a ratio of 8.0×10^2 cells per well, while another 96-well plate was inoculated with human pulmonary cancer cells at a ratio of 2.5×10^3 per well. These cells were incubated in an incubator at 37° C. under 5% CO2 for 24 hours. Then the compound of the present invention was added thereto at various concentrations. Cells in each well were counted by the dye exclusion method three days after the addition to thereby evaluate the growth-inhibitory effect of the test compound on the mouse pulmonary cancer cells (LL) and that on the human pulmonary cancer cells (PC-3).

[3] = solubility; format: physicochemical
[4] = test system: bovine adrenal capillary endothelial cells; test: growth-inhibitory effect on endothelial cells, Coulter counter; format: cell-based; details: Bos taurus, Endothelial cell, 72 h, three days
Method: The growth-inhibitory effect of the compound of the present invention on endothelial cells was examined. A 96-well plate was inoculated with bovine adrenal capillary endothelial cells at a ratio of 1×10^4 cells per well. One day after the inoculation, the compound of the present invention was added thereto at various concentrations. Cells in each well were counted with a Coulter counter three days after the addition to thereby evaluate the growth-inhibitory effect of the test compound on the capillary endothelial cells. […] Thus the IC50 of the compound of the present invention on the endothelial cells was 0.0003 μg/ml, showing a strong growth-inhibitory effect.

[5] = test system: Mucor javanicus; test: antifungal spectrum on Czapek Dox solution agar; format: cell-based; details: read-out: Minimum inhibitory concentration
Excerpt: (§1) the antifungal spectrum of the compound of the present invention was examined.

[6] = test system: Candida albicans; test: antifungal spectrum on Czapek Dox solution agar; format: cell-based; details: read-out: Minimum inhibitory concentration
Excerpt: as §1

[7] = test system: Sporobolomyces salmonicolor; test: antifungal spectrum on Czapek Dox solution agar; format: cell-based; details: read-out: Minimum inhibitory concentration
Excerpt: as §1

[8] = test system: Rhizopus hangchao; test: antifungal spectrum on Czapek Dox solution agar; format: cell-based; details: read-out: Minimum inhibitory concentration
Excerpt: as §1

[9] = test system: Altenaria kikuchiana; test: antifungal spectrum on Czapek Dox solution agar; format: cell-based; details: read-out: Minimum inhibitory concentration
Excerpt: as §1

[10] = test system: Aspergillus oryzae; test: antifungal spectrum on Czapek Dox solution agar; format: cell-based; details: read-out: Minimum inhibitory concentration
Excerpt: as §1

[11] = test system: Penicillium chrysogenum; test: antifungal spectrum on Czapek Dox solution agar; format: cell-based; details: read-out: Minimum inhibitory concentration
Excerpt: as §1

[12] = test system: Fusarium roseum f. sp.; test: antifungal spectrum on Czapek Dox solution agar; format: cell-based; details: Fusarium sambucinum, read-out: Minimum inhibitory concentration
Excerpt: as §1

[13] = test system: Mycosphaerella melonis; test: antifungal spectrum on Czapek Dox solution agar; format: cell-based; details: read-out: Minimum inhibitory concentration
Excerpt: as §1

[14] = test system: Saccharomyces cerevisiae; test: antifungal spectrum on Czapek Dox solution agar; format: cell-based; details: read-out: Minimum inhibitory concentration
Excerpt: as §1

[15] = test system: Aspergillus niger; test: antifungal spectrum on Czapek Dox solution agar; format: cell-based; details: read-out: Minimum inhibitory concentration
Excerpt: as §1

[16] = test system: two-spoted spider mite acarids (a Kelthane-resistant species); test: insecticidal action, mortality of two-spoted spider mite imagos; format: in vivo; details: after 2 days
Method: The insecticidal action of the compound of the present invention was examined by the following method.
(1) An imago of two-spoted spider mite acarids (a Kelthane-resistant species) was used as a test vermin, and the mortality rate thereof was assaYed according to an ordinary method (described on page 327 of "NoYaku Seibutsu Kenteiho" edited by Toyoji Hosotsuji).
Specifically, a solution of the compound of the present invention in acetone (0.1%) was added to 0.5 ml of an aqueous sucrose solution (1%) to have a predetermined concentration. Ten two-spoted spider mite acarids were released in a vessel (20-ml beaker), and the vessel was covered with a paraffin film. The agent solution prepared above was put on the paraffin film, and another praffin film was put thereon. The beaker was allowed to stand in a thermostatic chamber (20°±1° C.) for a predetermined period of time, and the life and death of the test vermin were investigated.

SMILES: CCC1/C=C/C=C/CC(C)C(O)C(C)(O)C(=O)C(C)C(O)C(C)C(=O)C(C)C(O)C(C)/C=C/C(=O)OC2C(C)C(CC1)OC1(CCC(C)C(CC(C)O)O1)C2CC (stereo not shown) [NK130119]
- IC50 ([1]; human melanoma cells (G361)): 1.63 µg/mL (≈ 2.02 µM)
- inhibition at 0.0006 µg/mL ([1]; Homo sapiens, G361, 0.0006 μg/ml, read-out: Growth-inhibitory ratio): -2.01%
- inhibition at 0.0024 µg/mL ([1]; Homo sapiens, G361, 0.0024 μg/ml, read-out: Growth-inhibitory ratio): 5.3%
- inhibition at 0.0097 µg/mL ([1]; Homo sapiens, G361, 0.0097 μg/ml, read-out: Growth-inhibitory ratio): 10.8%
- inhibition at 0.039 µg/mL ([1]; Homo sapiens, G361, 0.039 μg/ml, read-out: Growth-inhibitory ratio): 29.6%
- inhibition at 0.156 µg/mL ([1]; Homo sapiens, G361, 0.156 μg/ml, read-out: Growth-inhibitory ratio): 33.9%
- inhibition at 0.625 µg/mL ([1]; Homo sapiens, G361, 0.625 μg/ml, read-out: Growth-inhibitory ratio): 36%
- inhibition at 2.5 µg/mL ([1]; Homo sapiens, G361, 2.5 μg/ml, read-out: Growth-inhibitory ratio): 56.2%
- inhibition at 10 µg/mL ([1]; Homo sapiens, G361, 10 μg/ml, read-out: Growth-inhibitory ratio): 89.6%
- IC50 ([2]; human pulmonary cancer cells (PC-3)): 2 µg/mL (≈ 2.48 µM)
- inhibition at 0.0006 µg/mL ([2]; Homo sapiens, PC-3, 0.0006 μg/ml, read-out: Growth-inhibitory ratio): 0.8%
- inhibition at 0.0024 µg/mL ([2]; Homo sapiens, PC-3, 0.0024 μg/ml, read-out: Growth-inhibitory ratio): 1.4%
- inhibition at 0.0098 µg/mL ([2]; Homo sapiens, PC-3, 0.0098 μg/ml, read-out: Growth-inhibitory ratio): 6.2%
- inhibition at 0.039 µg/mL ([2]; Homo sapiens, PC-3, 0.039 μg/ml, read-out: Growth-inhibitory ratio): 22.6%
- inhibition at 0.156 µg/mL ([2]; Homo sapiens, PC-3, 0.156 μg/ml, read-out: Growth-inhibitory ratio): 21.3%
- inhibition at 0.625 µg/mL ([2]; Homo sapiens, PC-3, 0.625 μg/ml, read-out: Growth-inhibitory ratio): 28%
- inhibition at 2.5 µg/mL ([2]; Homo sapiens, PC-3, 2.5 μg/ml, read-out: Growth-inhibitory ratio): 54.3%
- inhibition at 10 µg/mL ([2]; Homo sapiens, PC-3, 10 μg/ml, read-out: Growth-inhibitory ratio): 91.5%
- solubility in hexane ([3]; hexane): hardly soluble
- solubility in organic solvents ([3]; methanol, acetone, ethyl acetate and ethanol): soluble
- solubility in water ([3]; water): hardly soluble
- IC50 ([4]; bovine adrenal capillary endothelial cells): 0.0003 µg/mL (≈ 0.000373 µM)
- inhibition at 0.000128 µg/mL ([4]; endothelial cells, 0.000128 μg/ml, read-out: Growth-inhibitory ratio): 35.2%
- inhibition at 0.00064 µg/mL ([4]; endothelial cells, 0.00064 μg/ml, read-out: Growth-inhibitory ratio): 62.9%
- inhibition at 0.0032 µg/mL ([4]; endothelial cells, 0.0032 μg/ml, read-out: Growth-inhibitory ratio): 77.9%
- inhibition at 0.016 µg/mL ([4]; endothelial cells, 0.016 μg/ml, read-out: Growth-inhibitory ratio): 90.1%
- MIC [5]: > 100 µg/mL
- MIC [6]: > 100 µg/mL
- MIC [7]: > 100 µg/mL
- MIC [8]: > 100 µg/mL
- MIC [9]: 0.78 µg/mL (≈ 0.969 µM)
- MIC [10]: 1.56 µg/mL (≈ 1.94 µM)
- MIC [11]: 0.78 µg/mL (≈ 0.969 µM)
- MIC [12]: 0.39 µg/mL (≈ 0.484 µM)
- MIC [13]: 1.56 µg/mL (≈ 1.94 µM)
- MIC [14]: > 100 µg/mL
- MIC [15]: 1.56 µg/mL (≈ 1.94 µM)
- Mortality rate, imagos of two-spoted spider mite ([16]; 1 ppm): 20%
- Mortality rate, imagos of two-spoted spider mite ([16]; 10 ppm): 60%
- Mortality rate, imagos of two-spoted spider mite ([16]; 100 ppm): 100%
